Assays:
[1] = target: T1, human recombinant chemokine CCR8 receptor (Homo sapiens, UniProt P51685); assay: CCL1 SPA Binding Assay; details: inhibition of 125I CCL1 binding to CCR8 membranes from transfected CHO-K1 cells
T1 construct: purchased Euroscreen ES-136-M; host or cells: CHO-K1 cells (transfected), membrane preparation
Procedure: Membranes from CHO-K1 cells transfected with human recombinant chemokine CCR8 receptor (ES-136-M) were purchased from Euroscreen. Membrane preparations are stored at −70C in 7.5 mM Tris-Cl pH 7.5, 12.5 mM MgCl2, 0.3 mM EDTA, 1 mM EGTA, 250 mM sucrose until used.
The CCR8 membranes ([…]) were preincubated with Wheat Germ Agglutinin SPA beads (4.05 mg/ml) in assay buffer (50 mM HEPES, 1 mM CaCl2x2H2O, 5 mM MgCl2x6H2O, 75 mM NaCl, 0.1% BSA) at pH=7.4 for 2 hours on ice. A […] dose-response curve (final concentrations 50 μM, 16.7 μM, 5.6 μM, 1.9 μM, 0.62 μM, 0.21 μM, 0.069 μM, 0.023 μM) was prepared by diluting compounds by serial dilution 1:3 in DMSO. In the screening plate (Polystyrene NBS plates, Costar Corning 3604) 1 μl from the DMSO solutions of compounds was transferred into each well. 1 μl of DMSO was added to the blank control wells and 1 μl unlabeled CCL1 ([…]) was added to background control wells. 50 μl of the SPA bead-membrane mixture was added into each well. Finally, 50 μl ([…]) ^125I CCL1 (2000 Ci/mM) was added to each well. Plates were then incubated at RT with shaking (700 rpm) for 90 minutes followed by 30 minutes at RT without shaking. The plate was read in a Wallac MicroBeta counter for 2 minutes/well.

[2] = Human Microsomal Stability Assay; format: in vitro ADME; details: human microsomes (Xenotech); human microsomes 1 mg protein/mL, compound 2.5 μM, NADPH 2 mM, pH 7.4, 37° C.; read-out: Intrinsic clearance
Procedure: Human Microsomal Stability Assay
Samples at four time-points (0, 5, 15 and 30 minutes) are withdrawn and the enzymatic reaction is terminated by protein precipitation with 1% acetic acid in acetonitrile. The incubations are performed on a thermostated plate (37° C.) placed on a Tecan worktable, and all liquid handling was performed robotically. After centrifugation of the samples, the supernatants are pooled in sets of four before they are analysed by liquid chromatography with tandem mass spectrometry detection (LC/MS/MS) using multiple reaction monitoring (MRM). Data are presented as intrinsic Clearance (CLint), μl/min/mg protein, calculated from the initial linear part of the compound disappearance curve.

T1 sequence (P51685 whole entry): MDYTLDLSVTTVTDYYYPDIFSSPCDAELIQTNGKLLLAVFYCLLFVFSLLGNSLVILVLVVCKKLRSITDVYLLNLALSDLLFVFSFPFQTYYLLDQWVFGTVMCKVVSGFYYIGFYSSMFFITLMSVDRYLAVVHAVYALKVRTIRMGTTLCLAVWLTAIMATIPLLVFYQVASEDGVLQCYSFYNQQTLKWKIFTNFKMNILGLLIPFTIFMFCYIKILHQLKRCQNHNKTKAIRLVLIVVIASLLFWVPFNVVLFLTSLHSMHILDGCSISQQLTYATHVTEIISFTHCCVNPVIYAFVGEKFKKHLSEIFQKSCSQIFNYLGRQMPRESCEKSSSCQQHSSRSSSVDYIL

With CC(C)COc1ccccc1CN1CCC2(CC1)CCN(C(=O)c1ccccc1CC(=O)O)CC2 [A, (2-{[9-(2-isobutoxybenzyl)-3,9-diazaspiro[5.5]undec-3-yl]carbonyl}phenyl)acetic Acid, reference compound] the IC50 [1] was 1060 nM.
In the case of CC(C)COc1ccccc1CN1CCC2(CC1)CCN(C(=O)c1ccccc1C(=O)O)CC2 [B, 2-{[9-(2-isobutoxybenzyl)-3,9-diazaspiro[5.5]undec-3-yl]carbonyl}benzoic Acid, reference compound], the IC50 [1] is reported as 1370 nM.
For O=C(O)Cc1ccccc1C(=O)N1CCC2(CCN(Cc3ccccc3Oc3ccccc3)CC2)CC1 [Example 1, (2-{[9-(2-phenoxybenzyl)-3,9-diazaspiro[5.5]undec-3-yl]carbonyl}phenyl)acetic Acid], the IC50 [1] was 643 nM and the microsomal CLint at 2.5 μM [2] was less than 10 µL/min/mg.
With O=C(O)Cc1cc(Cl)ccc1C(=O)N1CCC2(CCN(Cc3ccccc3Oc3ccccc3)CC2)CC1 [Example 2, (5-chloro-2-{[9-(2-phenoxybenzyl)-3,9-diazaspiro[5.5]undec-3-yl]carbonyl}phenyl)acetic Acid] the IC50 [1] was 196 nM and the microsomal CLint at 2.5 μM [2] was less than 10 µL/min/mg.
With O=C(O)Cc1ccccc1C(=O)N1CCC2(CCN(Cc3cccc(Oc4ccccc4)c3)CC2)CC1 [Example 3, (2-{[9-(3-phenoxybenzyl)-3,9-diazaspiro[5.5]undec-3-yl]carbonyl}phenyl)acetic Acid] the IC50 [1] was 144 nM and the microsomal CLint at 2.5 μM [2] was less than 10 µL/min/mg.
For COc1ccccc1Oc1ccccc1CN1CCC2(CC1)CCN(C(=O)c1ccccc1CC(=O)O)CC2 [Example 4, [2-({9-[2-(2-methoxyphenoxy)benzyl]-3,9-diazaspiro[5.5]undec-3-yl}carbonyl)phenyl]acetic Acid], the IC50 [1] was 58 nM and the microsomal CLint at 2.5 μM [2] was less than 10 µL/min/mg.
Work on COc1ccccc1Oc1ccccc1CN1CCC2(CC1)CCN(C(=O)c1ccc(Cl)cc1CC(=O)O)CC2 [Example 5, [5-chloro-2-({9-[2-(2-methoxyphenoxy)benzyl]-3,9-diazaspiro[5.5]undec-3-yl}carbonyl)phenyl]acetic Acid] yielded an IC50 [1] of 17 nM and a microsomal CLint at 2.5 μM [2] of less than 10 µL/min/mg.
COc1ccccc1Oc1ccccc1CN1CCC2(CC1)CCN(C(=O)c1cc(Cl)c(Cl)cc1C(=O)O)CC2 [Example 6, 4,5-dichloro-2-({9-[2-(2-methoxyphenoxy)benzyl]-3,9-diazaspiro[5.5]undec-3-yl}carbonyl)benzoic Acid] gave an IC50 [1] of 81 nM and a microsomal CLint at 2.5 μM [2] of 16 µL/min/mg.
In the case of COc1ccccc1Oc1ccccc1CN1CCC2(CC1)CCN(C(=O)c1ccccc1NC(=O)C(=O)O)CC2 [Example 7, {[2-({9-[2-(2-methoxyphenoxy)benzyl]-3,9-diazaspiro[5.5]undec-3-yl}carbonyl)phenyl]amino}(oxo)acetic Acid], the IC50 [1] is reported as 100 nM and the microsomal CLint at 2.5 μM [2] is reported as less than 10 µL/min/mg.
COc1ccccc1Oc1cccc(CN2CCC3(CC2)CCN(C(=O)c2ccccc2CC(=O)O)CC3)c1 [Example 8, [2-({9-[3-(2-methoxyphenoxy)benzyl]-3,9-diazaspiro[5.5]undec-3-yl}carbonyl)phenyl]acetic Acid] gave an IC50 [1] of 42 nM and a microsomal CLint at 2.5 μM [2] of less than 10 µL/min/mg.
For COc1ccccc1Oc1cccc(CN2CCC3(CC2)CCN(C(=O)c2ccccc2C(=O)O)CC3)c1 [Example 9, 2-({9-[3-(2-methoxyphenoxy)benzyl]-3,9-diazaspiro[5.5]undec-3-yl}carbonyl)benzoic Acid], the IC50 [1] was 71 nM and the microsomal CLint at 2.5 μM [2] was less than 10 µL/min/mg.
In the case of COc1ccccc1Oc1cccc(CN2CCC3(CC2)CCN(C(=O)c2ccc(OCC(=O)O)cc2)CC3)c1 [Example 10, [4-({9-[3-(2-methoxyphenoxy)benzyl]-3,9-diazaspiro[5.5]undec-3-yl}carbonyl)phenoxy]acetic Acid], the IC50 [1] is reported as 405 nM and the microsomal CLint at 2.5 μM [2] is reported as less than 10 µL/min/mg.
For COc1ccccc1Oc1cccc(CN2CCC3(CC2)CCN(C(=O)c2ccccc2OCC(=O)O)CC3)c1 [Example 11, [2-({9-[3-(2-methoxyphenoxy)benzyl]-3,9-diazaspiro[5.5]undec-3-yl}carbonyl)phenoxy]acetic Acid], the IC50 [1] was 520 nM and the microsomal CLint at 2.5 μM [2] was less than 10 µL/min/mg.
COc1ccccc1Oc1cccc(CN2CCC3(CC2)CCN(C(=O)c2ccc(Cl)cc2)CC3)c1 [Y, 3-(4-chlorobenzoyl)-9-[3-(2-methoxyphenoxy)benzyl]-3,9-diazaspiro[5.5]undecane, reference compound] showed a microsomal CLint at 2.5 μM [2] greater than 200 µL/min/mg.

— patent publication US20090118318A1, “Novel Diazaspiroalkanes and Their Use for Treatment of CCR8 Mediated Diseases” (priority 2005, published 2009)
